Measured values taken from PubChem BioAssay AID256 (DTP/NCI, 2004).
Inconclusive results and toxic doses are left out. How the source made its calls: active means survival T/C of 150% or more; inactive means T/C below 125% in these data.

Tested on: CD2F1 mice, L1210 leukemia ip, survival T/C
Assay: NCI In Vivo Anticancer Drug Screen. Data for tumor model L1210 Leukemia (intraperitoneal) in CD2F1 (CDF1) mice
Details: higher = longer survival
In short: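 In this screen, transplantable tumors were grown in mice given either the compound or its vehicle. Results were expressed as the treated measurement relative to the control measurement.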

[1] = endpoint: mean survival time, dose: 100.0 mg/kg/injection, schedule: Q04DX003 (ip), vehicle: saline with Tween-80
[2] = endpoint: mean survival time, dose: 200.0 mg/kg/injection, schedule: Q04DX003 (ip), vehicle: saline with Tween-80
[3] = endpoint: mean survival time, dose: 400.0 mg/kg/injection, schedule: Q04DX003 (ip), vehicle: saline with Tween-80
[4] = endpoint: mean survival time, dose: 25.0 mg/kg/injection, schedule: Q04DX002 (ip), vehicle: saline with Tween-80
[5] = endpoint: mean survival time, dose: 50.0 mg/kg/injection, schedule: Q04DX002 (ip), vehicle: saline with Tween-80
[6] = endpoint: mean survival time, dose: 100.0 mg/kg/injection, schedule: Q04DX002 (ip), vehicle: saline with Tween-80

Measured: T/C

CC1CCC(C)(C)CC1(C)c1cc(CN(C)C)c(O)c(CN(C)C)c1 (stereo not given)
inactive: endpoint: mean survival time, dose: 12.5 mg/kg/injection, schedule: Q01DX009 (ip), vehicle: acetone 95 % of control | endpoint: mean survival time, dose: 25.0 mg/kg/injection, schedule: Q01DX009 (ip), vehicle: acetone 98 % of control | endpoint: mean survival time, dose: 50.0 mg/kg/injection, schedule: Q01DX009 (ip), vehicle: acetone 98 % of control

CCC(C#N)C1=CCCCCC1 (stereo not given)
inactive: [1] 103 % of control

CCCCC=CC1CCCCC1 (mixture of isomers)
inactive: endpoint: mean survival time, dose: 100.0 mg/kg/injection, schedule: Q04DX003 (ip), vehicle: saline 94 % of control | endpoint: mean survival time, dose: 200.0 mg/kg/injection, schedule: Q04DX003 (ip), vehicle: saline 94 % of control | endpoint: mean survival time, dose: 400.0 mg/kg/injection, schedule: Q04DX003 (ip), vehicle: saline 94 % of control

COC(=N)Cc1ccc(OC)c(OC)c1
inactive: [1] 102 % of control | [2] 96 % of control | [3] 94 % of control

O=C(/C(=N/N(C(=O)c1ccccc1)c1ccccc1)c1ccccc1)c1ccccc1
inactive: [1] 102 % of control | [2] 88 % of control | [3] 95 % of control

O=c1c([N+](=O)[O-])cn(O)cc1[N+](=O)[O-]
inactive: endpoint: mean survival time, dose: 100.0 mg/kg/injection, schedule: Q01DX001 (ip), vehicle: alkali diluted with saline 100 % of control | endpoint: mean survival time, dose: 200.0 mg/kg/injection, schedule: Q01DX001 (ip), vehicle: alkali diluted with saline 94 % of control | endpoint: mean survival time, dose: 400.0 mg/kg/injection, schedule: Q01DX001 (ip), vehicle: alkali diluted with saline 100 % of control

CC(=O)OC1CCC2(C)C(CCC3(C)C2CCC2C4C5OC(=O)C4(CCC5(C)C)CCC23C)C1(C)C (stereo not given)
inactive: endpoint: mean survival time, dose: 6.25 mg/kg/injection, schedule: Q04DX002 (ip), vehicle: saline with Tween-80 114 % of control | endpoint: mean survival time, dose: 12.5 mg/kg/injection, schedule: Q04DX002 (ip), vehicle: saline with Tween-80 100 % of control | [4] 100 % of control | [5] 88 % of control | [6] 98 % of control

Nc1nc(SSc2nc(N)nc3c2ncn3C2OC(CO)CC2O)c2ncn(C3OC(CO)CC3O)c2n1 (stereo not given)
inactive: endpoint: mean survival time, dose: 300.0 mg/kg/injection, schedule: Q01DX001 (ip), vehicle: saline 118 % of control

CC1=NC(C#N)=C(C#N)N=C(C)C1
inactive: endpoint: mean survival time, dose: 10.0 mg/kg/injection, schedule: Q04DX003 (ip), vehicle: Klucel (hydroxypropylcellulose) (HPC) 102 % of control | endpoint: mean survival time, dose: 20.0 mg/kg/injection, schedule: Q04DX003 (ip), vehicle: Klucel (hydroxypropylcellulose) (HPC) 98 % of control | endpoint: mean survival time, dose: 40.0 mg/kg/injection, schedule: Q04DX003 (ip), vehicle: Klucel (hydroxypropylcellulose) (HPC) 106 % of control

C[N+](C)(C)Cc1ccccc1
inactive: endpoint: mean survival time, dose: 3.13 mg/kg/injection, schedule: Q01DX009 (ip), vehicle: saline with Tween-80 97 % of control | endpoint: mean survival time, dose: 6.25 mg/kg/injection, schedule: Q01DX009 (ip), vehicle: saline with Tween-80 97 % of control | endpoint: mean survival time, dose: 12.5 mg/kg/injection, schedule: Q01DX009 (ip), vehicle: saline with Tween-80 95 % of control | endpoint: mean survival time, dose: 12.5 mg/kg/injection, schedule: Q04DX003 (ip), vehicle: saline 104 % of control

COc1ccc2ccccc2c1-c1c(O)ccc2ccccc12
inactive: endpoint: mean survival time, dose: 12.5 mg/kg/injection, schedule: Q01DX009 (ip), vehicle: other 101 % of control | endpoint: mean survival time, dose: 25.0 mg/kg/injection, schedule: Q01DX009 (ip), vehicle: other 97 % of control | endpoint: mean survival time, dose: 50.0 mg/kg/injection, schedule: Q01DX009 (ip), vehicle: other 91 % of control

CC(=O)OC1(c2ccccc2)CC(=O)C=C1c1ccccc1 (stereo not given)
inactive: [4] 102 % of control | [5] 91 % of control | [6] 87 % of control

CNC(=O)Oc1cccc(NC(=O)OC(C)C(C)C)c1 (stereo not given)
inactive: [1] 98 % of control | [2] 90 % of control | [3] 96 % of control

CONc1ccn(C2OC(CO)C(O)C2O)c(=O)n1 (stereo not given)
inactive: endpoint: mean survival time, dose: 12.5 mg/kg/injection, schedule: Q01DX009 (ip), vehicle: saline 108 % of control | endpoint: mean survival time, dose: 25.0 mg/kg/injection, schedule: Q01DX009 (ip), vehicle: saline 108 % of control | endpoint: mean survival time, dose: 50.0 mg/kg/injection, schedule: Q01DX009 (ip), vehicle: saline 117 % of control | endpoint: mean survival time, dose: 100.0 mg/kg/injection, schedule: Q01DX009 (ip), vehicle: saline 121 % of control | endpoint: mean survival time, dose: 200.0 mg/kg/injection, schedule: Q01DX009 (ip), vehicle: saline 120 % of control | endpoint: mean survival time, dose: 400.0 mg/kg/injection, schedule: Q01DX009 (ip), vehicle: saline 97 % of control | endpoint: median survival time, dose: 12.5 mg/kg/injection, schedule: Q01DX009 (ip), vehicle: saline 101 % of control | endpoint: median survival time, dose: 25.0 mg/kg/injection, schedule: Q01DX009 (ip), vehicle: saline 108 % of control | endpoint: median survival time, dose: 50.0 mg/kg/injection, schedule: Q01DX009 (ip), vehicle: saline 108 % of control | endpoint: median survival time, dose: 100.0 mg/kg/injection, schedule: Q01DX009 (ip), vehicle: saline 111 % of control | endpoint: median survival time, dose: 200.0 mg/kg/injection, schedule: Q01DX009 (ip), vehicle: saline 112 % of control | endpoint: median survival time, dose: 400.0 mg/kg/injection, schedule: Q01DX009 (ip), vehicle: saline 120 % of control
